The results in this text go back to publication PMC10466331, “Fluorescence polarisation activity-based protein profiling for the identification of deoxynojirimycin-type inhibitors selective for lysosomal retaining alpha- and beta-glucosidases” (Chemical Science, 2023).

SMILES strings stand for the structures.

The subject of this experiment is retaining β-glucosidases GBA1, GBA2 and GBA3. Kind of experiment: SDS-gel activity-based protein profiling (in-gel fluorescence labelling). It is filed as biochemical. Particulars: 500 nM probe, 30 min 37 °C. The method, then: Lysates of HEK293T GBA2 overexpressing and HEK293T GBA3 overexpressing cells[24] were prepared in 150 mM McIlvain buffer (pH = 5.0), supplemented with 0.25 M sucrose, 0.2% sodium taurocholate (w/v) and 0.1% Triton X-100 (v/v). The lysates were homogenized using sonication, after which the total protein concentration was determined via Pierce BCA Protein assay (ThermoFisher) using BSA (ThermoFisher) for standards. Samples (Vf = 20 μL) of an 1 : 1 mixture of GBA2 : GBA3 lysates containing 40 μg protein were incubated for 30 min at 37 °C with 500 nM ABP. Protein content was denatured using Laemmli Buffer (4×) at 98 °C for 5 min. Reactions were resolved by 7.5% SDS-PAGE electrophoresis and wet slabs were scanned for fluorescence (Typhoon FLA 9500, GE Healthcare).

Regarding `COC(=O)c1cc(C(=O)NCCCCc2cn(C[C@@H]3[C@@H](O)[C@H](O)[C@@H](O)[C@@H]4O[C@H]34)nn2)ccc1-c1c2ccc(=[N+](C)C)cc-2oc2cc(N(C)C)ccc12` [ABP I], the “β-glucosidase labelling selectivity of the probe” value is reported as “modifies exclusively GBA1”.
